“Also recorded” adds a separate entry of the source.
Experiments:
human 5-HT1a receptor = biological target: T1, human 5-HT1a receptor (Homo sapiens, UniProt P08908); assay: Competition binding ([3H]-8-OH-DPAT) at cloned human 5-HT1a receptor; conditions: COS-7 cell membranes, read-out: Binding affinities (pKi) 5-HT1a (converted)
T1 construct: receptor open reading frames and variable non-coding 5′- and 3′-regions, was cloned into the eukaryotic expression vector pCEXV-3; expressed in transfected cells; host or cells: COS-7 cells, transient (DEAE-dextran); a deposited line 5-HT1A-3 (ATCC CRL 11889) is also named
T1 sequence (P08908 1-422): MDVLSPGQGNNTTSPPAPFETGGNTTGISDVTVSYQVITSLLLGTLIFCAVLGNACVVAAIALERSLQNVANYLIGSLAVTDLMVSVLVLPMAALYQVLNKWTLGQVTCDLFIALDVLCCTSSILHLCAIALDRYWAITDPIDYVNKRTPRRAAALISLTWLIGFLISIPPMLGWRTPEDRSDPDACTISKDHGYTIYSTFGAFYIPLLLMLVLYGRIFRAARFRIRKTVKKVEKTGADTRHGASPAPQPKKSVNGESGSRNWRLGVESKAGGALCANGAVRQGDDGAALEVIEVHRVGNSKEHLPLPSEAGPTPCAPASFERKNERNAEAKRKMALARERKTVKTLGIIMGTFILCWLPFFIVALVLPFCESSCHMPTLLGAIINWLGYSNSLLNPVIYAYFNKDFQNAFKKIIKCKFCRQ
Procedure: (§1) First, conditions were determined which allowed measurement of the specific binding of a compound known to bind to the receptor. Then, the binding of the known compound to the receptor in membrane preparations was evaluated in the presence of several different concentrations of the test compound.
(§2) These cell lines were prepared by transfecting the cloned cDNA or cloned genomic DNA or constructs containing both genomic DNA and cDNA encoding the human receptors as described below.
The cDNA corresponding to the ^5-HT1a receptor open reading frames and variable non-coding 5′- and 3′-regions, was cloned into the eukaryotic expression vector pCEXV-3. These constructs were transfected transiently into COS-7 cells by the DEAE-dextran method. Cells were harvested after 72 hours and lysed by sonication in 5 mM Tris-HCl, 5 mM EDTA, pH 7.5. The cell lysates were centrifuged at 1000 rpm for 5 minutes at 4° C., and the supernatant was centrifuged at 30,000×g for 20 minutes at 4° C. The pellet was suspended in 50 mM Tris-HCl buffer (pH 7.7 at room temperature) containing 10 mM MgSO4, 0.5 mM EDTA, and 0.1% ascorbate. The affinity of compounds at 5-HT1a receptors were determined in equilibrium competition binding assays using [^3H]-8-OH-DPAT. Nonspecific binding was defined by the addition of 10 μM mianserin. The bound radioligand was separated by filtration through GF/B filters using a cell harvester.

[1] = biological target: T2, human α1b adrenergic receptor (Homo sapiens, UniProt P35368); assay: Radioligand binding ([3H]prazosin) at cloned human α1b adrenergic receptor; conditions: LM(tk-) cell membranes, read-out: Binding affinities (pKi) α1b (converted)
T2 construct: The entire coding region of α1b (1563 bp); expressed in transfected cells
T2 sequence (P35368 1-520): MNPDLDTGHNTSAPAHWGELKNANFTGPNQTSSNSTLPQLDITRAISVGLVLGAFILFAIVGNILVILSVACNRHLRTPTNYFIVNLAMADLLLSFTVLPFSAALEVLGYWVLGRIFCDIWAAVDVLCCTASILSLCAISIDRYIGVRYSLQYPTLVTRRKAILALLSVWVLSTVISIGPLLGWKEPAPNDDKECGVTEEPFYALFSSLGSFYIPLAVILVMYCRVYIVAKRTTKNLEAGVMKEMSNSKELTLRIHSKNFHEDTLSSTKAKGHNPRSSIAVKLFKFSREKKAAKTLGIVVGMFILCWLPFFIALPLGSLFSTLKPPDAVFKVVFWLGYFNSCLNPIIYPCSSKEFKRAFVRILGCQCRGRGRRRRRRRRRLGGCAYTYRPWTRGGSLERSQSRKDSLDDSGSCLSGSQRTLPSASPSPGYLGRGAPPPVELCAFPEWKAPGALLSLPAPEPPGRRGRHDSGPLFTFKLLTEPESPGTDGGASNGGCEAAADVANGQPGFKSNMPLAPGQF
Procedure: as §1, §2
α1b Human Adrenergic Receptor: The entire coding region of α1b (1563 bp), including 200 base pairs of 5′ untranslated sequence (5′ UT) and 600 bp of 3′ untranslated sequence (3′ UT), was cloned into the EcoRI site of pCEXV-3 eukaryotic expression vector. The construct involved ligating the full-length EcoRI brainstem cDNA fragment from λ ZapII into the expression vector. Stable cell lines were selected as described above. Membranes were harvested and assayed for their ability to bind [^3H]prazosin as described below (see Radioligand Binding assays). The cell line used herein was designated L-α1B and was deposited with the American Type Culture Collection, 12301 Parklawn Drive, Rockville, Md. 20852, U.S.A. under the provisions of the Budapest Treaty for the International Recognition of the Deposit of Microorganisms for the Purposes of Patent Procedure. The cell line L-α1B was accorded ATCC Accession No. CR 11139, on Sep. 29, 1992.
Radioligand Binding Assays for α1 Human Adrenergic Receptors: Transfected cells from culture flasks were scraped into 5 ml of 5 mM Tris-HCl, 5 mM EDTA, pH 7.5, and lysed by sonication. The cell lysates were centrifuged at 1000 rpm for 5 min at 4° C., and the supernatant was centrifuged at 30,000×g for 20 min at 4° C. The pellet was suspended in 50 mM Tris-HCl, 1 mM MgCl2, and 0.1% ascorbic acid at pH 7.5. Binding of the α1, antagonist [^3H]prazosin (0.5 nM, specific activity 76.2 Ci/mmol) to membrane preparations of LM(tk-) cells was done in a final volume of 0.25 ml and incubated at 37° C. for 1 hour. Nonspecific binding was determined in the presence of 10 μM phentolamine. The reaction was stopped by filtration through GF/B filters using a cell harvester.

[2] = tested on: urethane-anesthetized rats; assay: Blood pressure in urethane-anesthetized, normotensive rats; type: in vivo, rat
Procedure: Rats were anesthetized with urethane and PE50 cannulae were placed in the femoral artery and vein for blood pressure monitoring and drug administration, respectively. After stabilization, rats were administered 200 μl saline vehicle or increasing doses of BMY 7378 or Compound 7 at 10 minutes intervals until the reduction in blood pressure reached a plateau. The 5-HT1A-selective antagonist WAY 100635 (1 mg/kg) was then administered and blood pressure monitored for an additional 10 minutes.

SMILES | Ki (human 5-HT1a receptor) [nM] | Ki [1] [nM] | reversal of the blood pressure effect by WAY 100635 ([2]; 5-HT1A-selective antagonist WAY 100635 1 mg/kg given after plateau) | effect on systolic, diastolic and mean blood pressure ([2]; urethane-anesthetized rats, increasing i.v. doses at 10 min intervals)
Cc1ccc(Cl)cc1N1CCN(CCN2C(=O)CC3(CCCC3)CC2=O)CC1 [Compound 13, 8-{2-[4-(5-Chloro-2-methylphenyl)piperazino]ethyl}-8-azaspiro [4.5]decane-7,9-dione] | 251 | 3160 | – | –
COc1ccc(F)cc1C1CCN(CCN2C(=O)CC3(CCCC3)CC2=O)CC1 [Compound 12, 8-{2-[4-(5-Fluoro-2-methoxyphenyl)piperidin-1-yl]ethyl}-8-azaspiro[4.5]decane-7,9-dione] | 7.94 | 63.1 | – | –
C[C@H](CN1CCN(c2cc(F)ccc2F)CC1)N1C(=O)CC2(CCCC2)CC1=O [Compound 8, 8-{(1R)-2-[4-(2,5-Difluorophenyl)piperazin-1-yl]-1-methylethyl}-8-azaspiro[4.5]decane-7,9-dione] | 50.1 | 63.1 | – | –
O=C1CC2(CCCC2)CC(=O)N1CCN1CCN(c2c(F)cccc2F)CC1 [Compound 14, 8-{2-[4-(2,6-Difluorophenyl)piperazino]ethyl}-8-azaspiro[4.5]decane-7,9-dione] | 7.94 | 126 | – | –
O=C1CC2(CCCC2)CC(=O)N1CCN1CCN(c2cc(F)ccc2F)CC1 [Compound 6, 8-{2-[4-(2,5-Difluorophenyl)piperazin-1-yl]ethyl}-8-azaspiro[4.5]decane-7,9-dione] | 25.1 | 50.1 | – | –
O=C1CC2(CCCC2)CC(=O)N1CCN1CCN(c2ccc(F)c(F)c2)CC1 [Compound 15, 8-{2-[4-(3,4-Difluorophenyl)piperazin-1-yl]ethyl}-8-azaspiro[4.5]decane-7,9-dione] | 50.1 | 1580 | – | –
O=C1CC2(CCCC2)CC(=O)N1CCN1CCN(c2cc(F)c(F)cc2F)CC1 [Compound 7, 8-{2-[4-(2,4,5-Trifluorophenyl)piperazin-1-yl]ethyl}-8-azaspiro[4.5]decane-7,9-dione] | 398 | 398 | not reversed | reduces blood pressure in anesthetized rat, although to a lesser extent than BMY 7378; also recorded: only a minor reduction in blood pressure
C[C@@H](CN1CCN(c2cc(F)ccc2F)CC1)N1C(=O)CC2(CCCC2)CC1=O [Compound 10, 8-{(1S)-2-[4-(2,5-Difluorophenyl)piperazin-1-yl]-1-methylethyl}-8-azaspiro[4.5]decane-7,9-dione] | 2510 | 3980 | – | –
